Measurements: patent US20130156845A1, “LIPID FORMULATED SINGLE STRANDED RNA” (ALNYLAM PHARMACEUTICALS, INC., priority 2010, published 2013)
e = 2'-O-(2-methoxyethyl) (MOE); {P} = phosphate; f = 2'-fluoro

How the values were obtained:
[1] = ssRNA stability in hepatocyte cell homogenate assay (Example 65); format: in vitro ADME; conditions: mouse hepatocyte homogenate, LC-MS; Test 1
Experimental: Hepatocytes were harvested from bal/c mice in ice-cold hepatocyte wash media (William E Media) with fetal bovine serum, sedimented by centrifugation at 1000 g for 8 minutes and then washed with hepatocyte wash media. Hepatocytes were homogenized with RIPA buffer (50 mM Tris pH 7.5, 10 mM MgCl2, 150 mM NaCl, 0.5% NP-40 alternative, one tablet of Roche protease inhibitor #11836170001), and centrifuged at 14000 g for 15 minutes at 4° C. and the supernatant was removed and stored in ice. Protein concentration (BSA mg/mL) was determined with Bradford assay and adjusted to a final protein concentration of 2 mg/mL by addition of Ripa buffer volume or cell homogenate volume.
[…] were homogenized in a homogenation buffer (20 mM Tris, pH 8, 20 mM EDTA and 0.1 M NaCl in 0.5% NP-40) at time points 0, 5, 10, 20, 30, 40 and 60 minutes (Exception: 06/408877 at time points 0, 15, 30, 60, 120 and 240 mins, 06/409044, at time points 0, 0.5, 1, 2, 4, 8, and 18 hours). An internal standard (18/355868, a 27-mer, 2′-O-methoxyethyl-modified phosphorothioate oligonucleotide, or 19/116847, a 5-10-5 gappmer, 2′-O-methoxyethyl-modified phosphorothioate oligonucleotide) with concentration at 20 ug/g was added prior to extraction. Tissue samples were extracted with 70 μL of NH4OH and 240 μL of phenol/chloroform/isoamyl alcohol (25:24:1). The supernatant was removed after centrifugation at 14000 rpm for 2 min. The remaining extractant was vortexed with an additional […] of water and the aqueous layer was removed and combined with the supernatant after centrifugation at 14000 rpm for 2 minutes.
Triethylammonium acetate solution at 1M ([…]) was added to the supernatant. The aqueous layer of the mixture was loaded onto the pre-conditioned Biotage™ Phenyl Solid Phase Extraction Plate (SPE plate) after centrifugation at 9000 rpm for 20 minutes. The SPE plate was washed several times with water. The sample was then eluted with 1.5 mL of 1% TEA in 90% MeOH and filtered through the Protein Precipitation Plate (Phenomenex™). The elutent was evaporated to dryness and diluted to 200 μL with 50% quenching buffer (8 M urea, 50 mM EDTA) and water before sample injection.
An Agilent 1100 Series LC/MSD system was connected in-line to a mass spectrometry. Mass spectrometer was operated in the electrospray negative ionization mode. The nebulizer nitrogen gas was set at […] and the drying nitrogen gas was set at 12 L/min. The drying temperature was 325° C. Samples (25 μL/well) were introduced via an auto sampler and reversed-phase chromatography was carried out with an XBridge OST C18 2.5 μm 2.1 mm×50 mm HPLC column using a flow rate of 300 μL/min at 55° C. The ion pair buffers consisted of A: 5 mM tributylammonium acetate (TBAA) in 20% acetonitrile and B: […] TBAA in 90% acetonitrile and the loading buffer was 25 mM TBAA in 25% Acetonitrile. Separation was performed on a 30% to 70% B in 9 min and then 80% B in 11 min gradient.
Quantitative analysis of oligonucleotide and internal standard by extracted ion chromatograms of the most abundant ions was performed using MSD ChemStation software. The results are expressed as half-time (T1/2) in the table below.

[2] = test system: PTEN; experiment: PTEN mRNA reduction in HeLa cells, dose response (Example 64); format: cell-based, human; conditions: real-time PCR, 1.56-50 nM
Experimental: A dose response experiment was performed targeting PTEN in human HeLa cells to determine the effects of placement of sugar and internucleoside linkages within ssRNAs. More specifically, the modified ssRNAs were tested for their ability to reduce PTEN mRNA in cultured cells. The modified ssRNAs are shown below, and contain 2′-OMe and 2′-fluoro modified nucleosides, two 2′-O-MOE modified nucleosides at the 3′-terminus, and seven phosphorothioate linkages at the 3′-terminus of the ssRNAs.
HeLa cells were treated with ssRNAs shown below at concentrations of 1.56 nM, 3.13 nM, 6.25 nM, 12.5 nM, […] and 50 nM using methods described herein. Levels of mRNA were determined using real-time PCR methods as described herein. The IC50 for each ssRNA was determined.

[3] = Phosphate stability in mouse serum (Example 68)

P-UfUfGfUfCfUfCfUfGfGfUfCfCfUfUfAfCfUfUfAeAe (antisense UUGUCUCUGGUCCUUACUUAA; sugars from the 5' end f19 e2, 5' {P}, backbone not given here) [ISIS 404320]
T1/2 Test 1 [1]: 4 min
IC50 [2]: 5.8 nM
T1/2 full length ([3]; four compounds tested separately, second table): 24 min
T1/2 full length ([3]; full compound with intact phosphorous moiety, first table): 24 min
